Results on 6 molecules are retold here after patent US20030166601A1, “Novel colloid synthetic vectors for gene therapy” (priority 1999, published 2003).

In series [1] the test system is cultured cells. As to the kind of experiment: Transfection of cultured cells, luciferase activity. Type of series: cell-based. An excerpt:
The gene delivery ability of substituted aminoethanols with long chain hydrocarbon (aliphatic) substitutients was studied by transfection of cultured cells and then in vivo by intravenous injection (Table 2 and 3). The substituted aminoethanols have two hydrophilic polar heads connected with one hydrophobic body, which was named bihead lipids. Bihead lipids are proposed to form a monolayer membrane.

In series [2] the test system is CD-1 mice. As to the kind of experiment: Luciferase expression in organs after intravenous injection of pCILuc complexes. The note with it: for Luciferase RLU/20 ul lysate heart / Luciferase RLU/20 ul lysate kidney / Luciferase RLU/20 ul lysate liver / Luciferase RLU/20 ul lysate lung / Luciferase RLU/20 ul lysate spleen: 40 μg pCILuc i.v., 5 h. Type of series: in vivo. An outline of the steps: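 Female CD-1 mice weighing 13-15 g received tail vein injections of 40 μg of the luciferase reporter plasmid pCILuc complexed with cationic lipids, used alone or mixed with cholesterol at a 1:1 mole ratio, at defined lipid-to-DNA weight ratios. Mice were sacrificed 5 h later. Organs were homogenized in 0.5 ml lysis buffer, and luciferase activity was measured in 20 μl of supernatant. Values are mean RLU from four mice, with DOTAP:Chol as the standard control.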

Series [3] can be described thus: Particle size of substituted aminoethanol-DNA complexes. Type of series: physicochemical. The source says:
The component streams intersect in the mixer, whereby shearing and mixing of the DNA and polymer are induced, whereby particles of a complex of DNA and polymer are formed. The resulting preparations may be tested for mean particle size in nanometers and distribution through dynamic light scattering using, for example, a Coulter N4 Plus Submicron Particle Sizer (Coulter Corporation, Miami, Fla.). Mean particle sizes and standard deviaitons can be determined by the unimodal and Size Distribution Processing (SDP), or “intensity” methods.
In the above methods, a laser is directed through a preparation of the particles. Dynamic light scattering is measured as a result of the Brownian motion of the particles. The dynamic light scattering-which is measured then is correlated-to particle size. In the unimodal method, the size distribution is determined by placing the sizes of the particles on a Gaussian curve. In the SDP method, size distribution is determined by a FORTRAN program called CONTIN. Such methods also are described further in the Coulter N4 Plus Submicron Particle Sizer Reference Manual (November 1995).
(§1) Substituted aminoethanols lacking long chain hydrocarbon (aliphatic) substitutients were used to compact plasmid DNA into a colloidal dispersion in water. The size and zeta potential of the colloidal dispersions prepared were determined at different charge ratios for added cation (amine) to anion (DNA phosphate) and are shown in Table 1 and FIG. 4. The colloidal dispersions prepared permit compaction of the DNA into core complexes that are suitable for the invention.

Series [4] can be described thus: Zeta potential of substituted aminoethanol-DNA complexes. The note with it: in mV (unit assumed). The format is physicochemical. How it is done:
as §1

The test system of series [5] is CHO (Sst2) cells. As to the kind of experiment: Transfection of CHO (Sst2) cells with peptide ligand complexes, luciferase. The format is cell-based. The note with it: polylysine core complexes; FIG. 26. An excerpt: K14RGD peptide containing the amino acid sequence: KKK KKK KKK KKK KKS CRG DC (SEQ ID NO:5) with at least 90% purity was synthesized at Alpha Diagnostic International (San Antonio, Tex.). Peptide K14SMT contains the amino acid sequence: KKK KKK KKK KKK KKA d-FCY d-WKT CT (SEQ ID NO:6), and peptide K14MST contains the amino acid sequence KKK KKK KKK KKK KKA TDC RGE CF (SEQ ID NO:7). Both SMT and MST peptides were synthesized at Genemed Synthesis Inc (CA, South San Francisco) and oxidized to make circularized peptide. The peptide was purified to 90% purity by the provider. CHO (Sst+) cell line was obtained from Novartis Oncology (Dr. Friedrich Raulf). The cell line was selected to stable express human somatostatin receptor Sst2.
10000 CHO (Sst2) cells were cultured in a serum-containing medium with 0.4 mg/ml G418 for 12 hr before transfection in each well of a 96 well plate. The medium was changed to a serum free medium before transfection. Peptide was added to the cell at indicated amounts from 1 ug to 10 ug/well and incubated for 30 min before 0.5 ug pCIluc2 was added to the same medium to transfect the cells. Lipofectin at 4 ul was used as the control.
At 24 hr, luciferase activity was measured with Promega luciferase assay kit according to the recommended procedure.

For the molecule `CCCCCCCCCCCCC(O)CN(CCCN)CCCCCCCCCCCCCN(CCCN)CC(O)CCCCCCCCCCCC` (stereo not drawn) [CGP47204A], the “Luciferase activity Ave. RLU × 10000/well FBS(+)” value in series [1] (charge ratio (+/−) 0.5) is given as 11 RLU × 10000/well; in series [1] (charge ratio (+/−) 1), 821 RLU × 10000/well; in series [1] (charge ratio (+/−) 2) it was 8,079 RLU × 10000/well; in series [1] (charge ratio (+/−) 4), 13,088 RLU × 10000/well; in series [1] (charge ratio (+/−) 6), 22,694 RLU × 10000/well; in series [1] (charge ratio (+/−) 8), 21,644 RLU × 10000/well. Also, the “Luciferase activity Ave. RLU × 10000/well FBS(−)” value is 33 RLU × 10000/well in series [1] (charge ratio (+/−) 0.5); 737 RLU × 10000/well in series [1] (charge ratio (+/−) 1); 8,386 RLU × 10000/well in series [1] (charge ratio (+/−) 2); 15,009 RLU × 10000/well in series [1] (charge ratio (+/−) 4); 20,091 RLU × 10000/well in series [1] (charge ratio (+/−) 6); 17,740 RLU × 10000/well in series [1] (charge ratio (+/−) 8). Also, the “Luciferase RLU/20 ul lysate heart” value came to 38 RLU/20 ul lysate in series [2] (CR 0.5); 41 RLU/20 ul lysate in series [2] (CR 1); 129 RLU/20 ul lysate in series [2] (CR 4); 983 RLU/20 ul lysate in series [2] (CR 10); 96 RLU/20 ul lysate in series [2] (CR 20). Further, the “Luciferase RLU/20 ul lysate kidney” value in series [2] (CR 0.5) amounted to 39 RLU/20 ul lysate; in series [2] (CR 1), 38 RLU/20 ul lysate; in series [2] (CR 4) it was 386 RLU/20 ul lysate; in series [2] (CR 10), 156 RLU/20 ul lysate; in series [2] (CR 20) it was 113 RLU/20 ul lysate. The “Luciferase RLU/20 ul lysate liver” value in series [2] (CR 0.5) was 45 RLU/20 ul lysate; in series [2] (CR 1) it was 53 RLU/20 ul lysate; in series [2] (CR 4), 4,583 RLU/20 ul lysate; in series [2] (CR 10) it was 3,270 RLU/20 ul lysate; in series [2] (CR 20), 429 RLU/20 ul lysate. Further, the “Luciferase RLU/20 ul lysate lung” value was 44 RLU/20 ul lysate in series [2] (CR 0.5); 51 RLU/20 ul lysate in series [2] (CR 1); 5,009 RLU/20 ul lysate in series [2] (CR 4); 38,115 RLU/20 ul lysate in series [2] (CR 10); 3,258 RLU/20 ul lysate in series [2] (CR 20). Further, the “Luciferase RLU/20 ul lysate spleen” value in series [2] (CR 0.5) is 80 RLU/20 ul lysate; in series [2] (CR 1), 467 RLU/20 ul lysate; in series [2] (CR 4), 5,594 RLU/20 ul lysate; in series [2] (CR 10), 6,378 RLU/20 ul lysate; in series [2] (CR 20) it was 779 RLU/20 ul lysate. Further, the “expression in vivo by core complexes” value in series [2] (mouse, in vivo) was “exhibit expression in vivo”.

Turning to `CCNCCCNCCCCNCCCNCC` [CGP 41660A], the “Particle Size” value in series [3] (charge ratio (+/−) 0.5) is reported as 136 nm; in series [3] (charge ratio (+/−) 1.0) it was 62.6 nm; in series [3] (charge ratio (+/−) 1.5) it was 93.4 nm; in series [3] (charge ratio (+/−) 2.0), 573.5 nm; in series [3] (charge ratio (+/−) 3.0), 987.4 nm; in series [3] (charge ratio (+/−) 4.0) it was 4959 nm. The “Zeta Potential” value in series [4] (charge ratio (+/−) 0.5) was −40.9; in series [4] (charge ratio (+/−) 1.0), −8.72; in series [4] (charge ratio (+/−) 1.5), −7.67; in series [4] (charge ratio (+/−) 2.0), −7.08; in series [4] (charge ratio (+/−) 3.0) it was −5.03; in series [4] (charge ratio (+/−) 4.0), −4.87.

Turning to `C(CNCCC1CCCCN1)CNCCC1CCCCN1` (stereo not drawn) [CGP 61670A], the “Particle Size” value is given as 77.6 nm in series [3] (charge ratio (+/−) 1.0); 192.4 nm in series [3] (charge ratio (+/−) 1.5); 293.3 nm in series [3] (charge ratio (+/−) 2.0); 3946.4 nm in series [3] (charge ratio (+/−) 3.0); 4304.7 nm in series [3] (charge ratio (+/−) 4.0). For the same molecule, the “Zeta Potential” value in series [4] (charge ratio (+/−) 0.5) is −17.6; in series [4] (charge ratio (+/−) 1.0), −15.4; in series [4] (charge ratio (+/−) 1.5) it was −9.1; in series [4] (charge ratio (+/−) 2.0) it was −8.71; in series [4] (charge ratio (+/−) 3.0), −6.01; in series [4] (charge ratio (+/−) 4.0), −5.52.

`CCN(CCCNCCCNCN(CC)C(=O)CN)C(=O)CN` [CGP 61750A]: the “Particle Size” value in series [3] (charge ratio (+/−) 0.5) came out at 176.7 nm; in series [3] (charge ratio (+/−) 1.0) it was 77.6 nm; in series [3] (charge ratio (+/−) 1.5) it was 90.3 nm; in series [3] (charge ratio (+/−) 2.0), 206.8 nm; in series [3] (charge ratio (+/−) 3.0) it was 1941.8 nm; in series [3] (charge ratio (+/−) 4.0) it was 2526.8 nm. In addition, the “Zeta Potential” value is on record as −47.3 in series [4] (charge ratio (+/−) 0.5); −30 in series [4] (charge ratio (+/−) 1.0); −25 in series [4] (charge ratio (+/−) 1.5); −17.1 in series [4] (charge ratio (+/−) 2.0); −11.7 in series [4] (charge ratio (+/−) 3.0); −9.78 in series [4] (charge ratio (+/−) 4.0).

KKK KKK KKK KKK KKA TDC RGE CF [MST]: the “expression, effect of peptide ligand” value in series [5] is given as “not observed”.

For the molecule “KKK KKK KKK KKK KKA d-FCY d-WKT CT [SMT]”, the “expression, effect of peptide ligand” value in series [5] is given as “increased expression”.
